Our source for the inhibition values is US9420794B2, “Herbicidal composition” (ISHIHARA SANGYO KAISHA, LTD., priority 2012, dated 2016).

In general, inhibition refers to the percentage by which the read-out fell short of the control.

Format in all cases: in vivo
The subject of test [1] is wild oat (Avena fatua L.). The experiment in a line: Test Example 4: pot test, soil treatment, growth inhibition of wild oat. The following applies: read-out: Growth inhibition rate of wild oat (%) Measured value. Here is the method:
(§1) Growth inhibition rate (%)=0 (equivalent to the non-treated area) to 100 (complete kill)
Upland field soil was put into a 1/160,000 ha pot, and seeds of wild oat (Avena fatua L.) were sown. On the next day, predetermined amounts of ONEHOPE NYUZAI (tradename), Clio (tradename) and Spectrum (tradename) were diluted with water (in an amount corresponding to 300 L/ha) and applied for soil treatment by a small sprayer.
On the 28 th day after treatment, the state of growth of the wild oat was visually observed to determine the growth inhibition rate (%). The growth inhibition rate (%) (measured value) and the growth inhibition rate (%) calculated in the same manner as in the above Test Example 1 are shown in Table 4.

The test system of test [2] is velvetleaf (Abutilon theophrasti Medic.). The experiment in a line: Test Example 1: pot test, soil treatment, growth inhibition of velvetleaf. The following applies: read-out: Growth inhibition rate of velvetleaf (%) Measured value.
Excerpt: Upland field soil was put into a 1/300,000 ha pot, and seeds of velvetleaf (Abutilon theophrasti Medic.) were sown. On the next day, predetermined amounts of a flowable containing nicosulfuron as an active ingredient (tradename: ONEHOPE NYUZAI, manufactured by Ishihara Sangyo Kaisha, Ltd.), an emulsifiable concentrate containing dimethenamid-P as an active ingredient (tradename: Spectrum, manufactured by BASF) and a flowable containing topramezone as an active ingredient (tradename: Clio, manufactured by BASF) were diluted with water (in an amount corresponding to 1,000 L/ha) and applied for soil treatment by a small sprayer.
On the 28th day after treatment, the state of growth of the velvetleaf was visually observed to determine the growth inhibition rate (%) in accordance with the following evaluation standard. The growth inhibition rate (%) (measured value) and the growth inhibition rate (%) (calculated value) calculated by the Colby's formula are shown in Table 1.
as §1

Test [3] relates to korean lespedeza (Kummerowia stipulacea (Maxim.) Makino). Nature of the test: Test Example 2: pot test, soil treatment, growth inhibition of korean lespedeza. The following applies: read-out: Growth inhibition rate of korean lespedeza (%) Measured value. Here is the method:
as §1
Upland field soil was put into a 1/160,000 ha pot, and seeds of korean lespedeza (Kummerowia stipulacea (Maxim.) Makino) were sown. On the next day, predetermined amounts of ONEHOPE NYUZAI (tradename), Clio (tradename) and Spectrum (tradename) were diluted with water (in an amount corresponding to 300 L/ha) and applied for soil treatment by a small sprayer.
On the 14th day after treatment, the state of growth of the korean lespedeza was visually observed to determine the growth inhibition rate (%). The growth inhibition rate (%) (measured value) and the growth inhibition rate (%) calculated in the same manner as in the above Test Example 1 are shown in Table 2.

For test [4], the system named is annual ragweed (Ambrosia artemisiifolia L.). The experiment in a line: Test Example 3: pot test, foliar treatment, growth inhibition of annual ragweed. To be noted: read-out: Growth inhibition rate of annual ragweed (%) Measured value. Here is the method: as §1
Upland field soil was put into a 1/1,000,000 ha pot, and seeds of annual ragweed (Ambrosia artemisiifolia L.) were sown. When the annual ragweed reached 6.0 to 8.0-leaf stage, predetermined amounts of ONEHOPE NYUZAI (tradename), Clio (tradename) and Spectrum (tradename) were diluted with water (in an amount corresponding to 300 L/ha) and applied for foliar treatment by a small sprayer.
On the 20 th day after treatment, the state of growth of the annual ragweed was visually observed to determine the growth inhibition rate (%). The growth inhibition rate (%) (measured value) and the growth inhibition rate (%) calculated in the same manner as in the above Test Example 1 are shown in Table 3.

Read-outs that look alike come from different tables or passages of the source.

As to `COC[C@H](C)N(C(=O)CCl)c1c(C)csc1C` [Dimethenamid-P, (S)-2-chloro-N-(2,4-dimethyl-3-thienyl)-N-(2-methoxy-1-methylethyl)acetamide], the inhibition at 250 g/ha turned out to be 60% in test [1] (dose 250 g/ha, soil treatment, 28th day after treatment) and 30% in test [3] (dose 250 g/ha, soil treatment, 14th day after treatment). In addition, the inhibition at 500 g/ha in test [2] (dose 500 g/ha, soil treatment, 28th day after treatment) amounted to 20%; in test [4] (dose 500 g/ha, foliar treatment at 6.0 to 8.0-leaf stage, 20th day after treatment), 0%. Also, the inhibition at 1500 g/ha in test [3] (dose 1500 g/ha, soil treatment, 14th day after treatment) stood at 30%. For the same compound, the inhibition at 1000 g/ha in test [4] (dose 1000 g/ha, foliar treatment at 6.0 to 8.0-leaf stage, 20th day after treatment) was found to be 0%.
Regarding `COc1cc(OC)nc(NC(=O)NS(=O)(=O)c2ncccc2C(=O)N(C)C)n1` [Nicosulfuron, 2-(4,6-dimethoxypyrimidin-2-ylcarbamoylsulfamoyl)-N,N-dimethylnicotinamide], the inhibition at 100 g/ha came to 60% in test [1] (dose 100 g/ha, soil treatment, 28th day after treatment) and 10% in test [3] (dose 100 g/ha, soil treatment, 14th day after treatment). Also, in test [2] (dose 15 g/ha, soil treatment, 28th day after treatment), the inhibition at 15 g/ha stood at 0%. Further, in test [3] (dose 10 g/ha, soil treatment, 14th day after treatment), the inhibition at 10 g/ha stood at 0%. Moreover, the inhibition at 30 g/ha in test [4] (dose 30 g/ha, foliar treatment at 6.0 to 8.0-leaf stage, 20th day after treatment) amounted to 13%.
With `Cc1c(C(=O)c2cnn(C)c2O)ccc(S(C)(=O)=O)c1C1=NOCC1` [Topramezone, [3-(4,5-dihydro-1,2-oxazol-3-yl)-4-mesyl-o-tolyl](5-hydroxy-1-methylpyrazol-4-yl)methanone], the inhibition at 15 g/ha in test [1] (soil) and in test [3] (soil) was 0% in each case. Moreover, the inhibition at 20 g/ha turned out to be 60% in test [2] (soil) and 40% in test [4] (foliar). Besides, the inhibition at 100 g/ha in test [3] (soil) is 10%. The inhibition at 50 g/ha in test [4] (foliar) was found to be 65%.
